# Read-outs that look alike come from different tables or passages of the source.
# Experiments:
# [1] = tested on: CaNT tumour; conditions: for % decrease in vascular volume: administered at 50 mg/kg, fluorescent dye technique; for vascular-damaging effects: at Maximum Tolerated Dose (30 mg/kg), 30 mg/kg; for MED (mg/kg body weight): other tubulin-binding agents, by fluorescent dye technique; for MED mg/Kg body weight: minimum effective dose by the fluorescent dye technique
# [2] = Maximum tolerated dose (no deaths in three animals); format: in vivo; conditions: for MTD: mouse, in vivo, other tubulin-binding agents, read-out: MTD (mg/kg body weight); for MTD mg/Kg body weight: maximum tolerated dose, no deaths in three animals
# From the text: The phosphate compound was compared with the parent N-acetylcolchinol for the maximum tolerated dose (MTD) (no deaths in three animals), minimum effective dose (MED) measured by the fluorescent dye technique already described and the therapeutic window (MTD/MED).
# [3] = tested on: Subcutaneous CaNT tumours; assay: Activity against tumour vasculature measured by radioactive tracer (86RbCl extraction, relative blood flow); format: in vivo, mice; conditions: dose of 125 mg/kg intraperitoneally
# Procedure: Activity Against Tumour Vasculature Measured by Radioactive Tracer.
# Subcutaneous CaNT tumours were initiated by injecting 0.05 ml of a crude tumour cell suspension, approximately 10^6 cells, under the skin overlying the rear dorsum of 12-16 week-old mice. The animals were selected for treatment after approximately 3-4 weeks, when their tumours reached a geometric mean diameter of 5.5-6.5 mm. Compounds were dissolved in sterile saline and injected intraperitoneally in a volume of 0.1 ml per 10 g body weight. Tumour perfusion was measured 6 hours after intraperitoneal administration in tumour, kidney, liver, skin muscle, gut and brain by the ^86RbCI extraction technique (Sapirstein, Amer J Physiol, 193, 161-168, 1958). Tissue radioactivity measured 1 minute after an intravenous injection of ^86RbCI was used to calculate relative blood flow as a proportion of cardiac output (Hill and Denekamp, Brit J Radiol, 55, 905-913, 1982). Five animals were used in control and treated groups. Results were expressed as a percentage of the blood flow in the corresponding tissues in vehicle treated animals.
# [4] = compared with parent N-acetylcolchinol
smiles,measurement,setting,value
"COc1cc2c(c(OC)c1OC)-c1ccc(O)cc1C(NS(=O)(=O)N(C)C)CC2 (stereo not drawn) [Example 6, N-Dimethylsulphamoylcolchinol]",% decrease in vascular volume,[1],30%
"COc1cc2c(c(OC)c1OC)-c1ccc(OCC(=O)O)cc1C(NC(C)=O)CC2 (stereo not drawn) [Example 8, N-Acetyl-O-carboxymethylcolchinol]",% decrease in vascular volume,[1],49%
"COc1cc2c(c(OC)c1OC)-c1cc([N+](=O)[O-])c(O)cc1C(NC(C)=O)CC2 (stereo not drawn) [Example 10, N-Acetyl-10-nitrocolchinol]",% decrease in vascular volume,[1],28%
"CC(=O)O[C@@]12CO[C@@H]1C[C@H](O)[C@@]1(C)C(=O)[C@H](O)C3=C(C)[C@@H](OC(=O)[C@H](O)[C@@H](NC(=O)OC(C)(C)C)c4ccccc4)C[C@@](O)([C@@H](OC(=O)c4ccccc4)[C@H]21)C3(C)C [Docetaxel, reference compound]",MTD,[2],30 mg/kg
same,vascular-damaging effects,[1],No effect
same,vascular-damaging effects,[1]; listed as docetaxel,no vascular-damaging effects
same,MED (mg/kg body weight),[1],> 30 mg/kg body weight
"COc1cc2c(c(OC)c1OC)-c1ccc(O)cc1C(NC(=O)OCc1ccccc1)CC2 (stereo not drawn) [Example 3, N-Benzyloxvcarbonylcolchinol]",% decrease in vascular volume,[1],43%
"COC(=O)COc1ccc2c(c1)C(NC(C)=O)CCc1cc(OC)c(OC)c(OC)c1-2 (stereo not drawn) [Example 7, N-Acetyl-O-methoxycarbonylmethylcolchinol]",% decrease in vascular volume,[1],12%
"COc1cc2c(c(OC)c1OC)-c1ccc(O)cc1[C@@H](NC(C)=O)CC2 [N-acetylcolchinol, reference compound]",MTD mg/Kg body weight,[2],125 mg/Kg body weight
same,% decrease in vascular volume,[1],78%
same,MED mg/Kg body weight,[1],30 mg/Kg body weight
"CCNC1CCc2cc(OC)c(OC)c(OC)c2-c2ccc(O)cc21 (stereo not drawn) [Example 2, N-Ethylcolchinol]",% decrease in vascular volume,[1],38%
"COc1cc2c(c(OC)c1OC)-c1ccc(OP(=O)(O)O)cc1C(NC(C)=O)CC2 (stereo not drawn) [Example 1, N-Acetylcolchinol-O-phosphate]",decrease in tumour blood flow,"[3]; measured 6 hours after administration, relative to vehicle treated animals",65%
same,"reduction in blood flow in skin, muscle, liver, kidney, gut or heart",[3]; normal tissues,no significant reduction
same,MTD mg/Kg body weight,[2],750 mg/Kg body weight
same,% decrease in vascular volume,[1],89%
same,MED mg/Kg body weight,[1],50 mg/Kg body weight
same,solubility,[4],greater solubility
"COc1cc2c(c(OC)c1OC)-c1ccc(OC)c(=O)cc1[C@@H](NC(C)=O)CC2 [Colchicine, reference compound]",MTD,[2],5 mg/kg
same,MED (mg/kg body weight),[1],2.5 mg/kg body weight
"COc1cc2c(c(OC)c1OC)-c1ccc(O)cc1C(NS(C)(=O)=O)CC2 (stereo not drawn) [Example 5, N-Mesylcolchinol]",% decrease in vascular volume,[1],38%
"COc1cc2c(c(OC)c1OC)-c1ccc(O)cc1C(NC(=O)Nc1ccccc1)CC2 (stereo not drawn) [Example 4, N-(Phenylcarbamoyl) colchinol]",% decrease in vascular volume,[1],37%
"COc1cc2c(c(OC)c1OC)-c1ccc(OC3CCCC3)cc1C(NC(C)=O)CC2 (stereo not drawn) [Example 9, N-Acetyl-O-cyclopentylcolchinol]",% decrease in vascular volume,[1],59%

# Reference: US6423753B1, “Use of colchinol derivatives as vascular damaging agents” (priority 1997, dated 2002)
